Consider seven molecules from ChEMBL document CHEMBL1201862, “PubChem BioAssay data set” (2004).

Some test systems named below: NCI-H522; NCI-H226; SN12C; COLO 205; CAKI-1; UACC-257; Malme-3M; U-251; SNB-19; NCI/ADR-RES; MOLT-4; 786-0; OVCAR-5; SF-268; SK-MEL-2; RPMI-8226; BT-549; HCC 2998; HOP-92; M14.
Holding throughout (assay): NCI-60 cell line screen, 48 h

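Exposure lasted 48 hours, with cells grown in 96-well plates and compounds tested at five concentrations. Here, GI50 denotes the concentration required for 50% inhibition of growth.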 Calls of active or inactive are those of the source. Rule as the data show it: active = GI50 up to about 1.1 µM and inactive = higher. Where only a bound is given, the exact number is not on record here.

Take `COc1ccc(CNC(=O)[C@H](Cc2ccc(O)cn2)NC(C)=O)cc1OC`: the GI50 with NCI-H522 is > 93.5 µM (inactive); with NCI-H226 it was > 100 µM (inactive); in the assay on SN12C it was > 100 µM (inactive); in the assay with COLO 205 it was > 100 µM (inactive); in the assay with CAKI-1, > 100 µM (inactive); in the assay on UACC-257, > 100 µM (inactive). The GI50 is > 100 µM (inactive) in the assay on Malme-3M; > 100 µM (inactive) in the assay on U-251; > 100 µM (inactive) in the assay with SNB-19; > 100 µM (inactive) with NCI/ADR-RES; > 96.8 µM (inactive) with MOLT-4; > 100 µM (inactive) in the assay with 786-0. In addition, the GI50 with OVCAR-5 was > 100 µM (inactive); in the assay with SF-268 it was > 90.6 µM (inactive); in the assay on SK-MEL-2, > 100 µM (inactive); in the assay on RPMI-8226, > 100 µM (inactive); in the assay on BT-549 it was > 100 µM (inactive); in the assay with HCC 2998, > 100 µM (inactive). Besides, the GI50 in the assay on HOP-92 and with M14 was > 100 µM (inactive) each time.

Consider `Oc1ncnc2c1nnn2CCCCCCCCCCCCn1nnc2c(O)ncnc21`, for which the GI50 in the assay on NCI-H522 was 20.4 µM (inactive); in the assay with NCI-H226, 32.6 µM (inactive); in the assay on SN12C, > 85.5 µM (inactive); with COLO 205, > 83.4 µM (inactive); with CAKI-1, > 100 µM (inactive); in the assay on UACC-257, 20.3 µM (inactive). Further, the GI50 in the assay with Malme-3M is > 100 µM (inactive); in the assay with U-251 it was 21.5 µM (inactive); in the assay with SNB-19, 20.2 µM (inactive); in the assay with NCI/ADR-RES, > 100 µM (inactive); with MOLT-4, > 100 µM (inactive); in the assay on 786-0, 22.9 µM (inactive). The GI50 with OVCAR-5 is 99.1 µM (inactive); with SF-268, 37.7 µM (inactive); in the assay on SK-MEL-2, 23.4 µM (inactive); with RPMI-8226 it was > 100 µM (inactive); in the assay on BT-549, 28.8 µM (inactive); with HCC 2998 it was > 78.7 µM (inactive). For the same molecule, the GI50 was 30 µM (inactive) in the assay on HOP-92 and > 100 µM (inactive) in the assay with M14.

With `NC1=NN(c2ccccc2)C2(O)c3ccncc3C3=NN(c4ccccc4)C(=O)C132` (stereo not given), the GI50 in the assay on NCI-H522, in the assay with NCI-H226, in the assay on SN12C, in the assay on COLO 205, in the assay on CAKI-1 and with UACC-257 was > 100 µM (inactive) each time. In addition, the GI50 in the assay with Malme-3M was 63.1 µM (inactive); in the assay on U-251, > 100 µM (inactive); in the assay on SNB-19, > 100 µM (inactive); with NCI/ADR-RES, > 100 µM (inactive); with MOLT-4, > 100 µM (inactive); in the assay on 786-0, > 100 µM (inactive). The GI50 in the assay on OVCAR-5, with SF-268, in the assay with SK-MEL-2, in the assay on RPMI-8226, in the assay on BT-549 and in the assay with HCC 2998 was > 100 µM (inactive) throughout. Moreover, the GI50 in the assay with HOP-92 and with M14 was > 100 µM (inactive) each time.

Turning to `COc1ccc2[nH]c3c(C)c4ccnc(NCCCN(C)CCCNC(=O)NCCCN(C)CCCNc5nccc6c(C)c7[nH]c8ccc(OC)cc8c7c(C)c56)c4c(C)c3c2c1`, the GI50 is 0.226 µM (active) in the assay with NCI-H522; 0.526 µM (active) in the assay on NCI-H226; 0.269 µM (active) in the assay with SN12C; 0.324 µM (active) with COLO 205; 0.716 µM (active) in the assay with CAKI-1; 1.6 µM (inactive) in the assay with UACC-257. The GI50 was 0.569 µM (active) in the assay with Malme-3M; 0.205 µM (active) in the assay on U-251; 0.264 µM (active) with SNB-19; 2.14 µM (inactive) in the assay with NCI/ADR-RES; 0.236 µM (active) with MOLT-4; 0.233 µM (active) with 786-0. Also, the GI50 in the assay with OVCAR-5 was 0.843 µM (active); in the assay on SF-268 it was 0.551 µM (active); in the assay on SK-MEL-2, 1.35 µM (inactive); in the assay with RPMI-8226, 0.564 µM (active); in the assay on BT-549, 1.62 µM (inactive); in the assay with HCC 2998, 0.265 µM (active). Also, the GI50 in the assay with HOP-92 is 0.406 µM (active); in the assay with M14, 0.753 µM (active).

Take `Cc1cccc(C2ON=C(c3ccccc3)N2C23CC4CC(CC(C4)C2)C3)c1` (stereo not given): the GI50 in the assay with NCI-H522, with NCI-H226, in the assay with SN12C, in the assay on COLO 205, in the assay with CAKI-1 and with UACC-257 was > 10 µM (inactive) throughout. Moreover, the GI50 in the assay with Malme-3M, in the assay with U-251, with SNB-19, with NCI/ADR-RES, with MOLT-4 and in the assay on 786-0 was > 10 µM (inactive) in each case. Besides, the GI50 in the assay on OVCAR-5, in the assay with SF-268, in the assay with SK-MEL-2, in the assay with RPMI-8226, in the assay with BT-549 and with HCC 2998 was > 10 µM (inactive) in each case. Also, the GI50 in the assay on HOP-92 and with M14 was > 10 µM (inactive) throughout.

With `O=C1N[C@H]2C(=O)c3c(Cl)sc(Cl)c3[C@H]2O1`, the GI50 was 3.13 µM (inactive) in the assay with NCI-H522; 32.1 µM (inactive) in the assay on NCI-H226; 10.9 µM (inactive) in the assay on SN12C; 6.52 µM (inactive) in the assay on COLO 205; 4.79 µM (inactive) in the assay on CAKI-1; 6.7 µM (inactive) with UACC-257. Moreover, the GI50 in the assay on Malme-3M was 14.3 µM (inactive); with U-251, 3.32 µM (inactive); with SNB-19, 15.2 µM (inactive); in the assay with NCI/ADR-RES, 20.1 µM (inactive); in the assay with MOLT-4, 3.12 µM (inactive); in the assay on 786-0, 14.2 µM (inactive). Further, the GI50 in the assay with OVCAR-5 is 19.4 µM (inactive); in the assay with SF-268, 4.8 µM (inactive); in the assay with SK-MEL-2, 19.5 µM (inactive); in the assay on RPMI-8226, 13.3 µM (inactive); in the assay on BT-549, 23.3 µM (inactive); in the assay on HCC 2998 it was 1.94 µM (inactive). The GI50 was 7.45 µM (inactive) with HOP-92 and 6.28 µM (inactive) in the assay on M14.

Consider `COC(=O)c1c(C)cccc1C1CN=NC12Cc1ccccc1C2=O` (stereo not given), for which the GI50 with NCI-H522 was 43.5 µM (inactive); in the assay on NCI-H226, > 83.4 µM (inactive); with SN12C, > 100 µM (inactive); in the assay on COLO 205 it was 60.8 µM (inactive); with CAKI-1, 98.6 µM (inactive); with UACC-257 it was 36.1 µM (inactive). Besides, the GI50 in the assay on Malme-3M is > 45.1 µM (inactive); in the assay on U-251, > 100 µM (inactive); with SNB-19, > 100 µM (inactive); in the assay on NCI/ADR-RES, 35.1 µM (inactive); in the assay with MOLT-4, 36.2 µM (inactive); in the assay with 786-0 it was > 100 µM (inactive). Further, the GI50 in the assay on OVCAR-5 is > 100 µM (inactive); in the assay with SF-268 it was > 53 µM (inactive); in the assay on SK-MEL-2, > 100 µM (inactive); in the assay with RPMI-8226 it was 35.3 µM (inactive); with BT-549, 54.5 µM (inactive); in the assay with HCC 2998, > 100 µM (inactive). The results for the GI50 with HOP-92 and in the assay with M14 were > 57.7 µM (inactive) and 20.1 µM (inactive), respectively.
